Experimental data as given in USRE32992E, “Peptide process for preparation thereof and use thereof” (priority 1978, dated 1989).

System: reticuloendotherial system
Test: Blood stream clearance of carbon
Type: in vivo, Mice (DDY male 5-6 W)
Description: 1. Carbon suspension. Rotoring drawing ink (170 mg carbon/ml.) was diluted to 1/5 of the original concentration in saline containing 1% gelatin.
2. 0.1% aqueous sodium carbonate solution.
Mice (DDY male 5-6 W) were injected via the tail vein with a dose of 0.01 ml/g body weight of carbon. Blood samples were taken by means of a pointed capillary pippet calibrated to hold a 50 μl and previously washed in heparin. This was plunged into the retrooribital venous sinus at the nasal angle of the eye. The samples were removed at 3 and to 6 min.
The blood was immediately discharged into 3.0 ml. of the sodium carbonate solution. This hemolyszed the blood and allowed the quantitation of carbon. The samples were then read in a spectrophotometer at 660 nm, the log concentration being obtained from a previously determined standard curve. The clearance value K may be determined by plotting log carbon concentration against time according to the following relationship; [formula] in which T1 and T2 represent the time in min when the sample were withdrawn and C1 and C2 represent the concentrations of carbon in the blood at the time T1 and T2, respectively.
The aqueous solution of the test compound as given was administered subcutaneously to mice. Twenty four hours later, blood stream clearance of carbon was measured. K value obtained with treated mice was compared with that of control mice.

| Molecule | Ktreated/Kcontrol (dose 125 mg/mouse) | Ktreated/Kcontrol (dose 400 mg/mouse) | Ktreated/Kcontrol (dose 10 mg/mouse) |
| --- | --- | --- | --- |
| Tuftsin | 1.0 | 1.4 | – |
| c1ccc([C@H]2CN3CCSC3=N2)cc1 [Levamisol] | – | – | death |
